This passage reports IC50 results from BindingDB's records for doi:10.1021/jm500588w (Sanofi R & D, 2014).

This assay can be described thus: Antagonist activity at P2Y12 receptor in human platelet rich plasma assessed as inhibition of ADP-induced aggregation.

Molecules are shown by their SMILES. Some results are limits rather than exact numbers.

As to `CCCC(=O)c1cnn(-c2ccc(NC(=O)c3cn(CC(=O)N4CCN(C)CC4)c4ccc(OC)cc34)cc2)c1C`, the IC50 amounted to 400 nM.
The figure for `CCCC(=O)c1cnn(-c2ccc(NC(=O)c3cn(CC(=O)N4CCN(C)CC4)c4ccc(Cl)cc34)cc2)c1C` is 500 nM.
For the compound `CCCC(=O)c1cnn(-c2ccc(NC(=O)c3cn(CC(=O)N4CCN(C)CC4)c4cc(F)c(Cl)cc34)cc2)c1C`, the IC50 stood at 500 nM.
The figure for `CCCC(=O)c1cnn(-c2ccc(NC(=O)c3cn(CC(=O)N4CCN(C)CC4)c4cc(C)c(Br)cc34)cc2)c1C` is 1100 nM.
The figure for `CCCC(=O)c1cnn(-c2ccc(NC(=O)c3cn(CC(=O)N4CCN(C)CC4)c4ccc(C(F)(F)F)cc34)cc2)c1C` is 700 nM.
The figure for `CCCC(=O)c1cnn(-c2ccc(NC(=O)c3cn(CC(=O)N4CCN(C)CC4)c4cc(C)c(Cl)cc34)cc2)c1C` is 500 nM.
`CCCC(=O)c1cnn(-c2ccc(N(C)C(=O)c3cn(CC(=O)O)c4ccc(C)cc34)cc2)c1C`: the IC50 is above 30000 nM.
With `CCCC(=O)c1cnn(-c2ccc(NC(=O)c3cn(CC(=O)N4CCN(C)CC4)c4ccc(C)cc34)cc2)c1C`, the IC50 was 500 nM.
The figure for `CCCC(=O)c1cnn(-c2ccc(NC(=O)c3cn(CC(=O)N4CCN(CCOC)CC4)c4ccc(Cl)cc34)cc2)c1C` is 300 nM; for `CCCC(=O)c1cnn(-c2ccc(NC(=O)c3cn(CC(=O)N4CCN(Cc5cc(C)on5)CC4)c4ccc(Cl)cc34)cc2)c1C` it is 300 nM; for `CCCC(=O)c1cnn(-c2ccc(NC(=O)c3cn(CC(=O)N4CCN5CCN(C)C(=O)C5C4)c4ccc(Cl)cc34)cc2)c1C` (configuration not stated) it is 300 nM.
For `CCCC(=O)c1cnn(-c2ccc(NC(=O)c3cn(CC(=O)N4CCN(CCO)CC4)c4ccc(Cl)cc34)cc2)c1C`, the IC50 turned out to be 300 nM.
With `CCCC(=O)c1cnn(-c2ccc(NC(=O)c3cn(CC(=O)N4CCN(CC(=O)N(C)C)CC4)c4ccc(Cl)cc34)cc2)c1C`, the IC50 came to 400 nM.
Take `CCCC(=O)c1cnn(-c2ccc(NC(=O)c3cn(CCC(=O)O)c4ccc(C)cc34)cc2)c1C`: the half-inhibitory concentration (IC50) was 4000 nM.
The figure for `CCCC(=O)c1cnn(-c2ccc(NC(=O)c3cn(CC(=O)O)c4ccc(C)cc34)cc2)c1C` is 1800 nM.
For the compound `CCOC(=O)c1c(C)nn(-c2ccc(C(=O)NCc3ccccc3OC)cc2)c1C`, the IC50 turned out to be 16800 nM.
The figure for `CCCC(=O)c1cnn(-c2ccc(NC(=O)c3cn(CC(=O)O)c4ccc(C)c(C)c34)cc2)c1C` is above 30000 nM; for `CCOC(=O)c1c(C)nn(-c2ccc(NC(=O)Nc3ccc(Cl)cc3)cc2)c1C` it is 4500 nM; for `CCCC(=O)c1cnn(-c2ccc(NC(=O)c3cn(CC(=O)O)c4cc(C)c(C)cc34)cc2)c1C` it is 400 nM.
`CCCC(=O)c1cnn(-c2ccc(NC(=O)c3c(C)n(CC(=O)O)c4ccc(C)cc34)cc2)c1C`: the half-inhibitory concentration (IC50) was found to be 15000 nM.
Take `CCCC(=O)c1cnn(-c2ccc(NC(=O)n3cc(CCCC(=O)O)c4ccc(C)cc43)cc2)c1C`: the IC50 is above 30000 nM.
The figure for `CCCC(=O)c1cnn(-c2ccc(NC(=O)c3cn(CC(=O)N4CCN(C)CC4)c4cc(C)c(C)cc34)cc2)c1C` is 500 nM.
The figure for `CCCC(=O)c1cnn(-c2ccc(NC(=O)c3cn(CCCC(=O)O)c4ccc(C)cc34)cc2)c1C` is 20000 nM; for `CCOC(=O)c1c(C)nn(-c2ccc(NC(=O)Nc3ccccc3OCCCC(=O)O)cc2)c1C` it is 13000 nM.
Consider `CCCC(=O)c1cnn(-c2ccc(NC(=O)c3cn(CC(=O)OC)c4ccc(C)cc34)cc2)c1C`, for which the IC50 amounted to 4100 nM.
As to `CCCC(=O)c1cnn(-c2ccc(NC(=O)Nc3cc(C)ccc3OCCCC(=O)O)cc2)c1C`, the IC50 was above 30000 nM.
On to `CCCC(=O)c1cnn(-c2ccc(NC(=O)c3cn(CC(=O)N(C)C)c4cc(C)c(C)cc34)cc2)c1C`, for which the IC50 amounted to 800 nM.

By IC50 is commonly meant the midpoint of a concentration-inhibition curve.
